By half-life is commonly meant the time needed for the level to fall by half in the phase considered. Higher therefore signals slow loss. The term Kp denotes the ratio of the level in a tissue or fluid to that in plasma or blood.

Some results are limits rather than exact numbers.

Data set [1] in a line: in vitro. The conditions noted are these: rat, liver microsomes. (In general: Microsomes from liver hold many membrane-bound enzymes, among them those of drug oxidation.)
Data set [2] can be described thus: in vivo. The conditions noted are these: rat, brain/plasma, po, 1600 mg/kg.

`O=C(CCN1CCN(C(=O)C2CC2)CC1)NC1CCCCC1` displayed a half-life in data set [1] of more than 60 min. Still for that read-out and setting: then `O=C(CCN1C[C@@H]2C[C@H]1CN2)NC1CCCCC1`, with 45 min.

Consider `O=C(CN1CCNCC1)NC1CCCCC1` [ESAPRAZOLE], for which the Kp at 2 h in data set [2] stood at 0.25. Also, in data set [1], the half-life was more than 60 min. For `O=C(CN1CCN2CCC[C@H]2C1)NC1CCCCC1`, in data set [1], the half-life is 4.2 min.

The molecule `CC(C)(C)CCNC(=O)CN1CCN(C(=O)C2CCCCC2)CC1` registered a half-life in data set [1] of 21 min. The same measure, in the same setting: to `O=C(CN1CCN2CCC[C@@H]2C1)NC1CCCCC1` belongs 8.2 min. On the same count and under the same terms, to `CCN1CCN(CC(=O)N(C)C2CCCC2)CC1C` (racemic) belongs 21 min.
